The results in this text go back to ChEMBL document CHEMBL1132100, “Sodium channel activity and sigma binding of 2-aminopropanamide anticonvulsants” (Bioorg Med Chem Lett, 1999).

Each structure is given as a SMILES string.

The IC50 is the concentration at which inhibition is half-maximal. What is called ED50 is the dose that gives a 50% effect, or the effect in half of the subjects. A higher ED50 goes with a need for a large dose. By TD50 is commonly meant the 50% point of the dose-response relation for the toxic effect studied. A higher TD50 goes with lower toxicity. The LD50 is the dose at which mortality reaches 50%. Low readings indicate greater toxicity, high ones lower toxicity.

The target in data set [1] is Sigma non-opioid intracellular receptor 1 (Rattus norvegicus, UniProt Q9R0C9). Put plainly: Inhibition of [3H]pentazocine binding to Opioid receptor sigma 1.
Sequence of Sigma non-opioid intracellular receptor 1 (Q9R0C9 whole entry): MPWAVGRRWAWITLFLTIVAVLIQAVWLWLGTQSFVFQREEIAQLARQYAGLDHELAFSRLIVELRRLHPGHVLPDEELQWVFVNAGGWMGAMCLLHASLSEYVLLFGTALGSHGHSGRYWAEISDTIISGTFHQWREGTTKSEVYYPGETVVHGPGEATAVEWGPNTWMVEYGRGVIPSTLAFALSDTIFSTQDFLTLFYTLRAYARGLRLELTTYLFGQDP
A further data set concerns Rattus norvegicus. Kind of data set: Tested for the anticonvulsant activity administered 60 min orally before MES induction. Format: functional. Conditions: po, 1 h.
In data set [2] the target is T1, Sodium channel alpha subunits; brain (Types I, II, III) (Rattus norvegicus, UniProt P04775+P04774+P08104). Kind of data set: Inhibition of [3H]batrachotoxin binding to rat brain sodium channel.
Data set [3] has as its target T1, Sodium channel alpha subunits; brain (Types I, II, III). Put plainly: Inhibition of [3H]saxitoxin binding to rat brain sodium channel. The format is tissue-based.
Data set [4] in a line: Protective index (PI) is the ratio of TD50 in the rotarod test over the ED50 in the anticonvulsant test. The format is functional.
Another data set is filed under the species Mus musculus. Put plainly: Toxic dose causing 50% treated mice fall from the rotarod was evaluated. (The rotarod test checks motor coordination on a turning rod.)
The nature of data set [5]: Lethal dose in rats. Format: toxicity. The note with it: rat, in vivo.

In the case of `CNC(=O)[C@@H](CO)NCc1ccc(OCc2cccc(F)c2)cc1`, the IC50 is 6.6 µM in data set [1], 17.9 µM in data set [2] and greater than 300 µM in data set [3]. This compound also registered an ED50 with Rattus norvegicus of 6.4 mg/kg. Moreover, in data set [4], the PI stood at 92.6. The same compound gave a TD50 in the data set filed under Mus musculus of 593 mg/kg.

As for `C[C@@H](NCc1ccc(OCc2cccc(F)c2)cc1)C(N)=O`, the IC50 in data set [1] was 0.28 µM; in data set [2], 8.5 µM; in data set [3], greater than 300 µM. In addition, the 50% effect level in the data set on Rattus norvegicus (ED50) was put at a dose of 7.2 mg/kg. Also, the PI in data set [4] stood at 87.8. In the data set listed under Mus musculus, the TD50 came out at 584 mg/kg.

As to `C[C@@H](NCc1ccc(OCCCc2ccccc2)cc1)C(N)=O`, the IC50 in data set [1] is 0.28 µM; in data set [2], 7.8 µM; in data set [3], greater than 300 µM. This compound came in with an ED50 in the data set on Rattus norvegicus of 12.6 mg/kg. For the same compound, in data set [4], the PI was 102. Moreover, the TD50 in the data set listed under Mus musculus turned out to be 1280 mg/kg.

Turning to `C[C@H](NCc1ccc(OCCCCCc2ccccc2)cc1)C(N)=O`, the IC50 was greater than 10 µM in data set [1], 1.4 µM in data set [2] and greater than 300 µM in data set [3]. In the data set on Rattus norvegicus, this compound showed an ED50 of 12.5 mg/kg. Besides, the PI in data set [4] came out at 80.8. For the same compound, the TD50 in the data set listed under Mus musculus worked out at 1010 mg/kg.

Take `COc1ccc(CN[C@@H](C)C(N)=O)cc1`: the 50% inhibitory concentration (IC50) in data set [1] was greater than 10 µM; in data set [2] it was 145.8 µM; in data set [3], greater than 300 µM. Moreover, the ED50 in the data set on Rattus norvegicus is greater than 100 mg/kg.

Turning to `C[C@H](NCc1ccc(OCCCc2ccccc2)cc1)C(N)=O`, the IC50 was 0.0193 µM in data set [1], 13.2 µM in data set [2] and greater than 300 µM in data set [3]. The compound also came in with a median effective dose (ED50) in the data set on Rattus norvegicus of 6.7 mg/kg. In addition, the PI in data set [4] was 87.2. In addition, the TD50 in the data set listed under Mus musculus stood at 584 mg/kg.

As to `C[C@@H](NCc1ccc(NCc2cccc(F)c2)cc1)C(N)=O`, the IC50 is 0.28 µM in data set [1], 11.3 µM in data set [2] and greater than 300 µM in data set [3]. Also, it took a dose of 1.7 mg/kg to reach the 50% effect level with Rattus norvegicus (ED50). Moreover, the PI in data set [4] worked out at 160. This compound also yielded a TD50 in the data set listed under Mus musculus of 272 mg/kg.

For the compound `C[C@H](NCc1ccc(OCCCCc2ccccc2)cc1)C(N)=O`, the IC50 in data set [1] was 0.55 µM; in data set [2], 1.1 µM; in data set [3], greater than 300 µM. The ED50 in the data set on Rattus norvegicus worked out at 12.4 mg/kg. Besides, the PI in data set [4] amounted to 81. This compound came in with a TD50 in the data set filed under Mus musculus of 1000 mg/kg.

On to `C[C@H](NCc1ccc(OCc2ccccc2)cc1)C(=O)O`, for which the ED50 in the data set on Rattus norvegicus is greater than 100 mg/kg. The IC50 in data set [2] is 150.8 µM; in data set [3] it was greater than 300 µM.

Take `COc1ccc2c(c1)[C@]13CCCC[C@@H]1[C@H](C2)N(C)CC3` [DEXTROMETHORPHAN]: in the data set with Rattus norvegicus, the ED50 turned out to be 12.9 mg/kg. The IC50 was 1.3 µM in data set [2] and greater than 100 µM in data set [3]. In data set [5], the 50% lethal dose (LD50) amounted to 234 mg/kg.

As for `CS(=O)(=O)O.C[C@H](NCc1ccc(OCc2cccc(F)c2)cc1)C(N)=O` [SAFINAMIDE MESYLATE], the half-inhibitory concentration (IC50) in data set [1] was 0.0197 µM; in data set [2] (read-out: IC50), 8.2 µM; in data set [3], greater than 300 µM. Besides, in the data set with Rattus norvegicus, the ED50 was 8 mg/kg. The PI in data set [4] was determined as 78.2. In the data set listed under Mus musculus, this compound had a TD50 of 626 mg/kg.

For `CNC(=O)[C@H](CO)NCc1ccc(OCc2cccc(F)c2)cc1`, the IC50 was 0.588 µM in data set [1], 26.3 µM in data set [2] and greater than 300 µM in data set [3]. Moreover, it took a dose of 13 mg/kg to reach the 50% effect level in the data set on Rattus norvegicus (ED50). Moreover, the PI in data set [4] amounted to 70.4. Further, the TD50 in the data set listed under Mus musculus stood at 915 mg/kg.

Turning to `C[C@H](NCc1ccc(NCc2cccc(F)c2)cc1)C(N)=O`, the figures for the IC50 in data set [1], in data set [2] and in data set [3] were 0.0344 µM, 13.9 µM and greater than 300 µM, respectively. In the data set on Rattus norvegicus, the 50% effective dose (ED50) amounted to 6.6 mg/kg. Moreover, the PI in data set [4] turned out to be 88.3. In addition, the TD50 in the data set filed under Mus musculus was found to be 583 mg/kg.

In the case of `Nc1nnc(-c2cccc(Cl)c2Cl)c(N)n1` [LAMOTRIGINE], the IC50 in data set [1] was greater than 10 µM; in data set [2] it was 185.9 µM; in data set [3], greater than 100 µM. In the data set on Rattus norvegicus, this compound yielded an ED50 of 2.2 mg/kg. In addition, in data set [4], the PI was 38.2. For the same compound, the TD50 in the data set listed under Mus musculus came out at 84 mg/kg.
